Assay results as given in patent publication US10253002B2, “Compounds and methods of treating infections” (Neoculi Pty Ltd., priority 2013, dated 2019).
≈ marks a conversion by molar mass, not a printed value. Blank lines part the entries; values can stand above or below the compound they belong to.

How the values were obtained:
[1] = system: S. pneumoniae isolates; assay: Disk diffusion susceptibility (CLSI/EUCAST), Example 5; format: cell-based, Streptococcus pneumoniae
Protocol: Isolate susceptibility to 12 different antimicrobials (Table 16) was determined by CLSI and European Committee on Antimicrobial Susceptibility Testing (EUCAST) methods. Antimicrobials were selected based upon the CLSI and EUCAST guidelines. Standardised bacterial suspensions were spread onto MHSBA using a sterile cotton swab. Bacterial suspensions from of Streptococcus pneumoniae were standardised to an OD6O0 between 0.08 and 0.1 using a spectrophotometer and then diluted 1:20. Bacterial colonies were taken from an O/N horse blood agar plate. To ensure the purity of the 1:20 bacterial suspension, 50 μL was spread plated onto horse blood agar and incubated O/N at 37° C. with 5% CO2. The CFU was calculated and compared to the initial plate counts. Antibiotic disks (Purchased from Sigma Aldrich) were placed using a disk dispenser (Purchased from Oxoid) according to CLSI standards. MHSBA plates were incubated for 16 h-24 h at 37° C. in 5% CO2. Zones of complete inhibition were measured in triplicate to the nearest millimeter using a ruler on natural light-reflected growth, and the mode was represented as the diameter for each isolate. Pneumococcal isolates were categorised as sensitive, intermediate (I) or resistant (R) by CLSI standards and quality control (QC) ranges (Table 16).

[2] = system: MRSA; assay: Broth microdilution MIC, Example 7 (NCL812 and analogues); format: cell-based, Staphylococcus aureus; conditions: 24 hours, duplicate lines per compound
Procedure, shortened: (§1)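 Isolates were tested in duplicate, with a third run if replicates differed by more than one two-fold dilution; inoculum purity was checked on sheep blood agar.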

[3] = system: VRE; assay: as above; format: cell-based, Enterococcus spp.; conditions: 24 hours, duplicate lines per compound
Procedure, shortened: as §1

[4] = system: Escherichia coli; assay: as above; format: cell-based; conditions: E. coli; 24 hours; duplicate lines per compound
[5] = system: Pseudomonas aeruginosa; assay: as above; format: cell-based; conditions: P. aeruginosa; 24 hours; duplicate lines per compound

SMILES: CC[C@H]1OC(=O)[C@H](C)[C@@H](O[C@H]2C[C@@](C)(OC)[C@@H](O)[C@H](C)O2)[C@H](C)[C@@H](O[C@@H]2O[C@H](C)C[C@H](N(C)C)[C@H]2O)[C@](C)(OC)C[C@@H](C)C(=O)[C@H](C)[C@@H](O)[C@]1(C)O [Clarithromycin]
disk diffusion zone diameter ([1]; A66.1): 30 mm
disk diffusion zone diameter ([1]; D39): 32 mm
disk diffusion zone diameter ([1]; EF3030): 32 mm
disk diffusion zone diameter ([1]; L82016): 34 mm
disk diffusion zone diameter ([1]; P9): 40 mm
disk diffusion zone diameter ([1]; P21): 38 mm
disk diffusion zone diameter ([1]; TIGR4): 35 mm
disk diffusion zone diameter ([1]; WCH16): 33 mm
disk diffusion zone diameter ([1]; WCH43): 28 mm
disk diffusion zone diameter ([1]; WCH46): 39 mm
disk diffusion zone diameter ([1]; WCH57): 39 mm
disk diffusion zone diameter ([1]; WCH77): 37 mm
disk diffusion zone diameter ([1]; WCH86): 36 mm
disk diffusion zone diameter ([1]; WCH89): 31 mm
disk diffusion zone diameter ([1]; WCH92): 27 mm
disk diffusion zone diameter ([1]; WCH137): 33 mm
disk diffusion zone diameter ([1]; WCH158): 38 mm
disk diffusion zone diameter ([1]; WCH184): 10 mm
disk diffusion susceptibility category ([1]; WCH184 (Table 18)): R
disk diffusion zone diameter ([1]; WCH211): 33 mm
disk diffusion zone diameter ([1]; WU2): 31 mm

SMILES: CCO/C(N)=N/N=C(\C)c1ccc(Cl)cc1 [NCL 162]
MIC (μg/ml) at 24 hours, MRSA 1 [2]: >128 µg/mL
MIC (μg/ml) at 24 hours, MRSA 2 [2]: 128 µg/mL (≈ 534 µM)
MIC (μg/ml) at 24 hours, VRE 1 [3]: >128 µg/mL
MIC (μg/ml) at 24 hours, VRE 2 [3]: >128 µg/mL
MIC (μg/ml) at 24 hours, E. coli [4]: >128 µg/mL
MIC (μg/ml) at 24 hours, P. aeruginosa [5]: >128 µg/mL

SMILES: Cl.N=C(NN=C1C(=O)Nc2ccccc21)NN=C1C(=O)Nc2ccccc21 [NCL 163]
MIC (μg/ml) at 24 hours, MRSA 1 [2]: >128 µg/mL
MIC (μg/ml) at 24 hours, MRSA 2 [2]: >128 µg/mL
MIC (μg/ml) at 24 hours, VRE 1 [3]: >128 µg/mL
MIC (μg/ml) at 24 hours, VRE 2 [3]: >128 µg/mL
MIC (μg/ml) at 24 hours, E. coli [4]: >128 µg/mL
MIC (μg/ml) at 24 hours, P. aeruginosa [5]: >128 µg/mL

Continued, values first:

MIC (μg/ml) at 24 hours, MRSA 1 [2]: >128 µg/mL
MIC (μg/ml) at 24 hours, MRSA 2 [2]: >128 µg/mL
MIC (μg/ml) at 24 hours, VRE 1 [3]: >128 µg/mL
MIC (μg/ml) at 24 hours, VRE 2 [3]: >128 µg/mL
MIC (μg/ml) at 24 hours, E. coli [4]: >128 µg/mL
MIC (μg/ml) at 24 hours, P. aeruginosa [5]: >128 µg/mL
SMILES: CC(=NNC(=N)NN=C(C)c1ccc(Cl)cc1N)c1ccc(Cl)cc1N.Cl [NCL 164]

MIC (μg/ml) at 24 hours, MRSA 1 [2]: >128 µg/mL
MIC (μg/ml) at 24 hours, MRSA 2 [2]: >128 µg/mL
MIC (μg/ml) at 24 hours, VRE 1 [3]: >128 µg/mL
MIC (μg/ml) at 24 hours, VRE 2 [3]: >128 µg/mL
MIC (μg/ml) at 24 hours, E. coli [4]: >128 µg/mL
MIC (μg/ml) at 24 hours, P. aeruginosa [5]: >128 µg/mL
SMILES: Cl.Cl.Cl.N=C(NN=C(CN)c1ccccc1)NN=C(CN)c1ccccc1 [NCL 165]

MIC (μg/ml) at 24 hours, MRSA 1 [2]: 32 µg/mL
MIC (μg/ml) at 24 hours, MRSA 2 [2]: 64 µg/mL
MIC (μg/ml) at 24 hours, VRE 1 [3]: 8 µg/mL
MIC (μg/ml) at 24 hours, VRE 2 [3]: 128 µg/mL
MIC (μg/ml) at 24 hours, E. coli [4]: >128 µg/mL
MIC (μg/ml) at 24 hours, P. aeruginosa [5]: >128 µg/mL
SMILES: Cl.N=C(NN=Cc1ccc(SC(F)(F)F)cc1)NN=Cc1ccc(SC(F)(F)F)cc1 [NCL 166]

MIC (μg/ml) at 24 hours, MRSA 1 [2]: >128 µg/mL
MIC (μg/ml) at 24 hours, MRSA 2 [2]: >128 µg/mL
MIC (μg/ml) at 24 hours, VRE 1 [3]: >128 µg/mL
MIC (μg/ml) at 24 hours, VRE 2 [3]: >128 µg/mL
MIC (μg/ml) at 24 hours, E. coli [4]: >128 µg/mL
MIC (μg/ml) at 24 hours, P. aeruginosa [5]: >128 µg/mL
SMILES: Cl.N=C(NN=C(C(=O)O)c1ccccc1)NN=C(C(=O)O)c1ccccc1 [NCL 167]

MIC (μg/ml) at 24 hours, MRSA 1 [2]: 32 µg/mL
MIC (μg/ml) at 24 hours, MRSA 2 [2]: 32 µg/mL
MIC (μg/ml) at 24 hours, VRE 1 [3]: 64 µg/mL
MIC (μg/ml) at 24 hours, VRE 2 [3]: 32 µg/mL
MIC (μg/ml) at 24 hours, E. coli [4]: >128 µg/mL
MIC (μg/ml) at 24 hours, P. aeruginosa [5]: >128 µg/mL
SMILES: CC(O)Nc1cc(Cl)ccc1C=NNC(=N)NN=Cc1ccc(Cl)cc1NC(C)O.Cl (stereo not drawn) [NCL 168]
